Legend:
AMBEL Ragweed, Common [1] = assay: Preemergence herbicidal evaluation, AMBEL; type: in vivo, Ambrosia artemisifolia, L.; set-up: scale not given here; settings: preemergence
Outline: (§1)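 Preemergence soil spray: aqueous acetone, ~0.013–0.800 kg/ha, applied right after sowing (seed/potting-soil mix over ~1 in soil). Greenhouse, routine watering. Scored 4–5 wk post-treatment on a rating scale.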

ECHOG Barnyardgrass [2] = assay: Preemergence herbicidal evaluation, ECHOG; type: in vivo, Echinochloa crus-galli, (L.) Beau; set-up: scale not given here; settings: preemergence
Outline: as §1

GLXMAW Soybean, Williams [3] = assay: Preemergence herbicidal evaluation, GLXMAW; type: in vivo, Glycine max, (L.) Merr. cv Williams; set-up: scale not given here; settings: preemergence
Outline: as §1

ABUTH Velvetleaf [4] = assay: Postemergence herbicidal evaluation, ABUTH; type: in vivo, Abutilon theophrasti, Medic.; set-up: scale not given here; settings: postemergence spray, rated about two-three weeks after treatment
Outline: (§2)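 Plants are raised for roughly two weeks, then treated postemergence with compound dispersed in acetone/water (80/20) plus 1.0% seed oil adjuvant, at rates of about 0.006 kg to 0.400 kg per hectare. After greenhouse care, damage is scored two to three weeks later.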

[5] = system: IPOHE Morningglory, Ivyleaf; assay: Postemergence herbicidal evaluation, IPOHE; type: in vivo, Ipomoea hederacea, (L.) Jacq.; set-up: scale not given here; settings: postemergence spray, rated about two-three weeks after treatment
Outline: as §2

ZEAMX Corn, Field [6] = assay: Postemergence herbicidal evaluation, ZEAMX; type: in vivo, Zea mays, L. (Sammel-Bezeichnung); set-up: scale not given here; settings: postemergence spray, rated about two-three weeks after treatment
Outline: as §2

AMBEL Ragweed, Common [7] = assay: Postemergence herbicidal evaluation, AMBEL; type: in vivo, Ambrosia artemisifolia, L.; set-up: scale not given here; settings: postemergence spray, rated about two-three weeks after treatment
Outline: as §2

ABUTH Velvetleaf [8] = assay: Preemergence herbicidal evaluation, ABUTH; type: in vivo, Abutilon theophrasti, Medic.; set-up: scale not given here; settings: preemergence
Outline: as §1

ZEAMX Corn, Field [9] = assay: Preemergence herbicidal evaluation, ZEAMX; type: in vivo, Zea mays, L. (Sammel-Bezeichnung); set-up: scale not given here; settings: preemergence
Outline: as §1

GALAP Galium [10] = assay: Preemergence herbicidal evaluation, GALAP; type: in vivo, Galium aparine; set-up: scale not given here; settings: preemergence
Outline: as §1

GALAP Galium [11] = assay: Postemergence herbicidal evaluation, GALAP; type: in vivo, Galium aparine; set-up: scale not given here; settings: postemergence spray, rated about two-three weeks after treatment
Outline: as §2

ORYSAT Rice, Tebonnet [12] = assay: Postemergence herbicidal evaluation, ORYSAT; type: in vivo, Oryza sativa, (L.); set-up: scale not given here; settings: postemergence spray, rated about two-three weeks after treatment
Outline: as §2

GLXMAW Soybean, Williams [13] = assay: Postemergence herbicidal evaluation, GLXMAW; type: in vivo, Glycine max, (L.) Merr. cv Williams; set-up: scale not given here; settings: postemergence spray, rated about two-three weeks after treatment
Outline: as §2

ORYSAT Rice, Tebonnet [14] = assay: Preemergence herbicidal evaluation, ORYSAT; type: in vivo, Oryza sativa, (L.); set-up: scale not given here; settings: preemergence
Outline: as §1

[15] = system: TRZAWR Wheat, Winter, cv Riband; assay: Preemergence herbicidal evaluation, TRZAWR; type: in vivo, Triticum aestivum; set-up: scale not given here; settings: preemergence
Outline: as §1

ECHOG Barnyardgrass [16] = assay: Postemergence herbicidal evaluation, ECHOG; type: in vivo, Echinochloa crus-galli, (L.) Beau; set-up: scale not given here; settings: postemergence spray, rated about two-three weeks after treatment
Outline: as §2

[17] = system: CHEAL Lambsquarters, Common; assay: Preemergence herbicidal evaluation, CHEAL; type: in vivo, Chenopodium album, L.; set-up: scale not given here; settings: preemergence
Outline: as §1

[18] = system: CHEAL Lambsquarters, Common; assay: Postemergence herbicidal evaluation, CHEAL; type: in vivo, Chenopodium album, L.; set-up: scale not given here; settings: postemergence spray, rated about two-three weeks after treatment
Outline: as §2

CASOB Sicklepod [19] = assay: Postemergence herbicidal evaluation, CASOB; type: in vivo, Cassia obtusifolia, L.; set-up: scale not given here; settings: postemergence spray, rated about two-three weeks after treatment
Outline: as §2

CASOB Sicklepod [20] = assay: Preemergence herbicidal evaluation, CASOB; type: in vivo, Cassia obtusifolia, L.; set-up: scale not given here; settings: preemergence
Outline: as §1

[21] = system: TRZAWR Wheat, Winter, cv Riband; assay: Postemergence herbicidal evaluation, TRZAWR; type: in vivo, Triticum aestivum; set-up: scale not given here; settings: postemergence spray, rated about two-three weeks after treatment
Outline: as §2

SETVI Foxtail, Green [22] = assay: Postemergence herbicidal evaluation, SETVI; type: in vivo, Setaria viridis, (L.) Beau; set-up: scale not given here; settings: postemergence spray, rated about two-three weeks after treatment
Outline: as §2

[23] = system: IPOHE Morningglory, Ivyleaf; assay: Preemergence herbicidal evaluation, IPOHE; type: in vivo, Ipomoea hederacea, (L.) Jacq.; set-up: scale not given here; settings: preemergence
Outline: as §1

SETVI Foxtail, Green [24] = assay: Preemergence herbicidal evaluation, SETVI; type: in vivo, Setaria viridis, (L.) Beau; set-up: scale not given here; settings: preemergence
Outline: as §1

CCc1cccc(-n2nnc3cc(F)c(-n4c(=O)cc(C(F)(F)F)[nH]c4=O)cc32)c1 [Example 13, 3-[1-(3-ethylphenyl)-5-fluoro-1H-1,2,3-benzotriazol-6-yl]-6-(trifluoromethyl)-2,4(1H,3H)-pyrimidinedione]
160 °C: melting point

COc1ccc(C)cc1-n1nnc2cc(F)c(-n3c(=O)cc(C(F)(F)F)[nH]c3=O)cc21 [Example 2, 3-[5-fluoro-1-(2-methoxy-5-methylphenyl)-1H-1,2,3-benzotriazol-6-yl]-6-(trifluoromethyl)-2,4(1H,3H)-pyrimidinedione]
145 to 150 °C: melting point

CCc1ccc(-n2nnc3cc(F)c(-n4c(=O)cc(C(F)(F)F)[nH]c4=O)cc32)cc1 [Example 3, 3-[1-(4-ethylphenyl)-5-fluoro-1H-1,2,3-benzotriazol-6-yl]-6-(trifluoromethyl)-2,4(1H,3H)-pyrimidinedione]
160 to 164 °C: melting point

Cc1ccc(OCC(=O)O)cc1-n1nnc2cc(F)c(-n3c(=O)cc(C(F)(F)F)n(C)c3=O)cc21 [Example 37]
3.0: AMBEL herbicidal rating (AMBEL Ragweed, Common [1]; rate 0.125 kg/ha) | Postemergence herbicidal rating ABUTH (ABUTH Velvetleaf [4]; 0.016 kg/ha) | Postemergence herbicidal rating IPOHE ([5]; 0.008 kg/ha) | Postemergence herbicidal rating ECHCG (ECHOG Barnyardgrass [16]; 0.062 kg/ha)
8.0: Postemergence herbicidal rating ZEAMX (ZEAMX Corn, Field [6]; 0.062 kg/ha) | SETVI herbicidal rating (SETVI Foxtail, Green [24]; rate 0.125 kg/ha)
5.0: Postemergence herbicidal rating ABUTH (ABUTH Velvetleaf [4]; 0.032 kg/ha) | IPOHE herbicidal rating ([23]; rate 0.125 kg/ha)
0.5: Postemergence herbicidal rating ORYSAT (ORYSAT Rice, Tebonnet [12]; 0.008 kg/ha)
9.0: Postemergence herbicidal rating ABUTH (ABUTH Velvetleaf [4]; 0.062 kg/ha) | Postemergence herbicidal rating IPOHE ([5]; 0.016 kg/ha) | Postemergence herbicidal rating IPOHE ([5]; 0.032 kg/ha) | Postemergence herbicidal rating IPOHE ([5]; 0.062 kg/ha) | Postemergence herbicidal rating AMBEL (AMBEL Ragweed, Common [7]; 0.032 kg/ha) | Postemergence herbicidal rating AMBEL (AMBEL Ragweed, Common [7]; 0.062 kg/ha) | ABUTH herbicidal rating (ABUTH Velvetleaf [8]; rate 0.062 kg/ha) | ABUTH herbicidal rating (ABUTH Velvetleaf [8]; rate 0.125 kg/ha) | CHEAL herbicidal rating ([17]; rate 0.125 kg/ha) | Postemergence herbicidal rating SETVI (SETVI Foxtail, Green [22]; 0.062 kg/ha)
7.0: Postemergence herbicidal rating ZEAMX (ZEAMX Corn, Field [6]; 0.008 kg/ha) | Postemergence herbicidal rating GLXMAW (GLXMAW Soybean, Williams [13]; 0.062 kg/ha) | Postemergence herbicidal rating TRZAWR ([21]; 0.062 kg/ha) | Postemergence herbicidal rating SETVI (SETVI Foxtail, Green [22]; 0.032 kg/ha)
5.5: Postemergence herbicidal rating TRZAWR ([21]; 0.016 kg/ha) | Postemergence herbicidal rating TRZAWR ([21]; 0.032 kg/ha)
2.0: Postemergence herbicidal rating GALAP (GALAP Galium [11]; 0.062 kg/ha) | Postemergence herbicidal rating ECHCG (ECHOG Barnyardgrass [16]; 0.032 kg/ha)
3.5: Postemergence herbicidal rating ORYSAT (ORYSAT Rice, Tebonnet [12]; 0.032 kg/ha) | Postemergence herbicidal rating GLXMAW (GLXMAW Soybean, Williams [13]; 0.008 kg/ha) | Postemergence herbicidal rating TRZAWR ([21]; 0.008 kg/ha)
7.5: Postemergence herbicidal rating ZEAMX (ZEAMX Corn, Field [6]; 0.016 kg/ha) | Postemergence herbicidal rating ZEAMX (ZEAMX Corn, Field [6]; 0.032 kg/ha) | Postemergence herbicidal rating ORYSAT (ORYSAT Rice, Tebonnet [12]; 0.062 kg/ha)
1.0: Postemergence herbicidal rating ORYSAT (ORYSAT Rice, Tebonnet [12]; 0.016 kg/ha)
0.0: AMBEL herbicidal rating (AMBEL Ragweed, Common [1]; rate 0.016 kg/ha) | AMBEL herbicidal rating (AMBEL Ragweed, Common [1]; rate 0.032 kg/ha) | AMBEL herbicidal rating (AMBEL Ragweed, Common [1]; rate 0.062 kg/ha) | ECHCG herbicidal rating (ECHOG Barnyardgrass [2]; rate 0.016 kg/ha) | ECHCG herbicidal rating (ECHOG Barnyardgrass [2]; rate 0.032 kg/ha) | ECHCG herbicidal rating (ECHOG Barnyardgrass [2]; rate 0.062 kg/ha) | ECHCG herbicidal rating (ECHOG Barnyardgrass [2]; rate 0.125 kg/ha) | GLXMAW herbicidal rating (GLXMAW Soybean, Williams [3]; rate 0.016 kg/ha) | GLXMAW herbicidal rating (GLXMAW Soybean, Williams [3]; rate 0.032 kg/ha) | GLXMAW herbicidal rating (GLXMAW Soybean, Williams [3]; rate 0.062 kg/ha) | GLXMAW herbicidal rating (GLXMAW Soybean, Williams [3]; rate 0.125 kg/ha) | Postemergence herbicidal rating ABUTH (ABUTH Velvetleaf [4]; 0.008 kg/ha) | Postemergence herbicidal rating AMBEL (AMBEL Ragweed, Common [7]; 0.008 kg/ha) | ABUTH herbicidal rating (ABUTH Velvetleaf [8]; rate 0.016 kg/ha) | ABUTH herbicidal rating (ABUTH Velvetleaf [8]; rate 0.032 kg/ha) | ZEAMX herbicidal rating (ZEAMX Corn, Field [9]; rate 0.016 kg/ha) | ZEAMX herbicidal rating (ZEAMX Corn, Field [9]; rate 0.032 kg/ha) | ZEAMX herbicidal rating (ZEAMX Corn, Field [9]; rate 0.062 kg/ha) | ZEAMX herbicidal rating (ZEAMX Corn, Field [9]; rate 0.125 kg/ha) | GALAP herbicidal rating (GALAP Galium [10]; rate 0.016 kg/ha) | GALAP herbicidal rating (GALAP Galium [10]; rate 0.032 kg/ha) | GALAP herbicidal rating (GALAP Galium [10]; rate 0.062 kg/ha) | GALAP herbicidal rating (GALAP Galium [10]; rate 0.125 kg/ha) | Postemergence herbicidal rating GALAP (GALAP Galium [11]; 0.008 kg/ha) | Postemergence herbicidal rating GALAP (GALAP Galium [11]; 0.016 kg/ha) | Postemergence herbicidal rating GALAP (GALAP Galium [11]; 0.032 kg/ha) | ORYSAT herbicidal rating (ORYSAT Rice, Tebonnet [14]; rate 0.016 kg/ha) | ORYSAT herbicidal rating (ORYSAT Rice, Tebonnet [14]; rate 0.032 kg/ha) | ORYSAT herbicidal rating (ORYSAT Rice, Tebonnet [14]; rate 0.062 kg/ha) | ORYSAT herbicidal rating (ORYSAT Rice, Tebonnet [14]; rate 0.125 kg/ha) | TRZAWR herbicidal rating ([15]; rate 0.016 kg/ha) | TRZAWR herbicidal rating ([15]; rate 0.032 kg/ha) | TRZAWR herbicidal rating ([15]; rate 0.062 kg/ha) | TRZAWR herbicidal rating ([15]; rate 0.125 kg/ha) | Postemergence herbicidal rating ECHCG (ECHOG Barnyardgrass [16]; 0.008 kg/ha) | Postemergence herbicidal rating ECHCG (ECHOG Barnyardgrass [16]; 0.016 kg/ha) | CHEAL herbicidal rating ([17]; rate 0.062 kg/ha) | Postemergence herbicidal rating CHEAL ([18]; 0.008 kg/ha) | Postemergence herbicidal rating CHEAL ([18]; 0.016 kg/ha) | Postemergence herbicidal rating CASOB (CASOB Sicklepod [19]; 0.008 kg/ha) | Postemergence herbicidal rating CASOB (CASOB Sicklepod [19]; 0.016 kg/ha) | Postemergence herbicidal rating CASOB (CASOB Sicklepod [19]; 0.032 kg/ha) | Postemergence herbicidal rating CASOB (CASOB Sicklepod [19]; 0.062 kg/ha) | CASOB herbicidal rating (CASOB Sicklepod [20]; rate 0.016 kg/ha) | CASOB herbicidal rating (CASOB Sicklepod [20]; rate 0.032 kg/ha) | CASOB herbicidal rating (CASOB Sicklepod [20]; rate 0.062 kg/ha) | CASOB herbicidal rating (CASOB Sicklepod [20]; rate 0.125 kg/ha) | Postemergence herbicidal rating SETVI (SETVI Foxtail, Green [22]; 0.008 kg/ha) | Postemergence herbicidal rating SETVI (SETVI Foxtail, Green [22]; 0.016 kg/ha) | IPOHE herbicidal rating ([23]; rate 0.016 kg/ha) | IPOHE herbicidal rating ([23]; rate 0.032 kg/ha) | IPOHE herbicidal rating ([23]; rate 0.062 kg/ha) | SETVI herbicidal rating (SETVI Foxtail, Green [24]; rate 0.016 kg/ha) | SETVI herbicidal rating (SETVI Foxtail, Green [24]; rate 0.032 kg/ha) | SETVI herbicidal rating (SETVI Foxtail, Green [24]; rate 0.062 kg/ha)
4.0: Postemergence herbicidal rating AMBEL (AMBEL Ragweed, Common [7]; 0.016 kg/ha) | Postemergence herbicidal rating GLXMAW (GLXMAW Soybean, Williams [13]; 0.016 kg/ha) | Postemergence herbicidal rating CHEAL ([18]; 0.032 kg/ha) | Postemergence herbicidal rating CHEAL ([18]; 0.062 kg/ha)
6.5: Postemergence herbicidal rating GLXMAW (GLXMAW Soybean, Williams [13]; 0.032 kg/ha)

From patent publication US20020111274A1, “1-alkyl-3-[1-(substituted phenyl) benzotriazol-6-yl] uracils” (BASF Aktiengesellschaft, priority 2000, published 2002)
